Data published in ChEMBL document CHEMBL1125958, “Antihypertensive benzopyran-related potassium channel activators: a role for lipophilicity” (Bioorg Med Chem Lett, 1991).

What was measured:
Rattus norvegicus [1] = test: Compound was tested for mean arterial pressure in the spontaneously hypertensive rat, activity expressed as mean arterial pressure before peroral administration of 0.17 mg/Kg dose; format: functional, Artery
Rattus norvegicus [2] = test: Compound was tested for mean arterial pressure in the spontaneously hypertensive rat, activity expressed as maximum % change in pressure after 3 hours of oral administration of 1.5 mg/Kg; format: functional, Artery

SMILES | Mean arterial blood pressure (Rattus norvegicus [1]) | Change (Rattus norvegicus [2])
CC1(C)Oc2ccc(OC(F)(F)F)cc2[C@@H](NC(=O)c2ccco2)[C@@H]1O | 175 mmHg | -30%
CC1(C)c2ccc(C#N)cc2[C@@H](NC(=O)c2ccco2)[C@@H]1O | 182 mmHg | -35%
CC1(C)Oc2ccc(C#N)cc2[C@@H](N2Cc3ccccc3C2=O)[C@@H]1O | 173 mmHg | -23%
CC1(C)Oc2ccccc2[C@@H](N2Cc3ccccc3C2=O)[C@@H]1O | 184 mmHg | -26%
CC1(C)Oc2ccc(OC(F)(F)F)cc2[C@@H](N2Cc3ccccc3C2=O)[C@@H]1O [CELIKALIM] | 180 mmHg | -28%
CC1(C)Oc2ccc(C#N)cc2[C@@H](N2CCCC2=O)[C@@H]1O [CROMAKALIM] | 171 mmHg | -28%
